Test results from ChEMBL document CHEMBL4800728, “Data for DCP probe JNJ-54119936” (2021).

Tests used:
Settings in all cases: Compound concentration 10.0 uM
[1] = target: Aurora kinase B (Homo sapiens) (UniProt Q96GD4); assay: Aurora_B Invitrogen kinase panel
[2] = target: Death-associated protein kinase 3 (Homo sapiens) (UniProt O43293); assay: ZIPK Invitrogen kinase panel
[3] = target: Inhibitor of nuclear factor kappa-B kinase subunit beta (Homo sapiens) (UniProt O14920); assay: IKKbeta Invitrogen kinase panel
[4] = target: Serine/threonine-protein kinase PLK3 (Homo sapiens) (UniProt Q9H4B4); assay: Plk3 Invitrogen kinase panel
[5] = target: GABA-A receptor; anion channel (Rattus norvegicus) (UniProt O09028+P15431+P18506+P18508+P19969+P20236+P23574+P23576+P28471+P28473+P30191+P62813+P63079+P63138+Q91ZM7+Q9ES14)

Measured: inhibition

Sequence of Inhibitor of nuclear factor kappa-B kinase subunit beta (Homo sapiens) (O14920 whole entry): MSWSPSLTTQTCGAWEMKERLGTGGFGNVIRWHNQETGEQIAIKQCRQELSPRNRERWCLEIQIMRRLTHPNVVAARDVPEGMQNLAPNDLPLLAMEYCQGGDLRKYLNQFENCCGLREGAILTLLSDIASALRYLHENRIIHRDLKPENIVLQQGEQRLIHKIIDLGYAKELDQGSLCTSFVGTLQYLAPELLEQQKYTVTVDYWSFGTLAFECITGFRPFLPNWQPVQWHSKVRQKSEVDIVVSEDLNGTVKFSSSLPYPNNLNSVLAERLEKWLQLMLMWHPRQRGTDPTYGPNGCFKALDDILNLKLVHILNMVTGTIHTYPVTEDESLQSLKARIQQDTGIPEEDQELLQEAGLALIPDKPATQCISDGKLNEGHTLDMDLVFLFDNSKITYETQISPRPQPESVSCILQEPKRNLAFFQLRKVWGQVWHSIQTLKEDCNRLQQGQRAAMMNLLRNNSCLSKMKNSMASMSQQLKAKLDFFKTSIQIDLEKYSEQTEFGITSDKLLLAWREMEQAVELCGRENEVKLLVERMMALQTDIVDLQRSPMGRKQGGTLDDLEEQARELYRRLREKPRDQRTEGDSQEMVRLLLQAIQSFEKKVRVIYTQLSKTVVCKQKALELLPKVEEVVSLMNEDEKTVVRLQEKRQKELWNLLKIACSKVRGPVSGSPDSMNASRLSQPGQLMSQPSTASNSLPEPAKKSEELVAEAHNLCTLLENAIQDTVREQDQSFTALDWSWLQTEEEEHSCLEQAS
Sequence of Aurora kinase B (Homo sapiens) (Q96GD4 whole entry): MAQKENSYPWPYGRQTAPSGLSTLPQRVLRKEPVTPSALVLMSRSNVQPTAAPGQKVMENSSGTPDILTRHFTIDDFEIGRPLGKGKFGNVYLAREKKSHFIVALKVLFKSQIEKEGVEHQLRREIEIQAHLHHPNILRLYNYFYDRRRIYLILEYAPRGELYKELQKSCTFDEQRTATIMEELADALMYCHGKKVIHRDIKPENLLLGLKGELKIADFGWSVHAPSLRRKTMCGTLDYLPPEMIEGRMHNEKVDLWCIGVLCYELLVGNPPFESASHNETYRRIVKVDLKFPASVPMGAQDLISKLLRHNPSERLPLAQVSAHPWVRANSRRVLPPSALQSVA
Sequence of Death-associated protein kinase 3 (Homo sapiens) (O43293 whole entry, looked up): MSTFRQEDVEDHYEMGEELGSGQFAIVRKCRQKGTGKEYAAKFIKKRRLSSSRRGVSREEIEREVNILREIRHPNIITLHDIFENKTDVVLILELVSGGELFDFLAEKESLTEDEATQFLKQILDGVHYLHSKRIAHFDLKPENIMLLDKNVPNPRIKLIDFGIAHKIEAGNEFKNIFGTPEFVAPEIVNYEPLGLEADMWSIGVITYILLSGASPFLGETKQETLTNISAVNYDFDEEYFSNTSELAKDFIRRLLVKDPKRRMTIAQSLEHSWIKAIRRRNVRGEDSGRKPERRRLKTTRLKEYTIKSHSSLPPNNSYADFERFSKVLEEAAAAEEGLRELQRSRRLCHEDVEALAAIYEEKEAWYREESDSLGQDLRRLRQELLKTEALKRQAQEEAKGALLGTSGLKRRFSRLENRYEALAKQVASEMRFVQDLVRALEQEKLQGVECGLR
Sequence of Serine/threonine-protein kinase PLK3 (Homo sapiens) (Q9H4B4 whole entry, looked up): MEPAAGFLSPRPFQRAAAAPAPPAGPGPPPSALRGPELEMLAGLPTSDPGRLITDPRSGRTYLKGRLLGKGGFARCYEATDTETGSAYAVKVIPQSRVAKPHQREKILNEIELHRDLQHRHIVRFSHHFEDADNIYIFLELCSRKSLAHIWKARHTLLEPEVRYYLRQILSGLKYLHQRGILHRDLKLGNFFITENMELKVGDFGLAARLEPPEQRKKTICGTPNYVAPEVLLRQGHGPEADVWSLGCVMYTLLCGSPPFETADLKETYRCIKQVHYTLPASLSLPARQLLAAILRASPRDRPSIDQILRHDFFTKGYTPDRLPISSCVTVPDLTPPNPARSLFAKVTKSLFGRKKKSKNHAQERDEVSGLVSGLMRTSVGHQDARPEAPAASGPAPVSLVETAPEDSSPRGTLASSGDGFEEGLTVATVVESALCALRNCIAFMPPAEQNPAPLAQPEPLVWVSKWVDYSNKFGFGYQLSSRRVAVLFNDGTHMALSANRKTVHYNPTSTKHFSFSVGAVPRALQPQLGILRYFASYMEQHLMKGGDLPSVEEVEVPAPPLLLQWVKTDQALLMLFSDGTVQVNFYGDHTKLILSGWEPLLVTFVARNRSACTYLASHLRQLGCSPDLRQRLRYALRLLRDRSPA

COc1nc2ccc([C@@](O)(c3ccccc3)C3CCN(C(C)=O)CC3)cc2c(Cl)c1Cc1ccc(-n2cccn2)cc1 [JNJ-54119936]
inactive: [1] 21% | [2] 10% | [3] 6% | [4] 3% | [5] 10.3%
